Measurements taken from US11512069B2, “TLR7/8 antagonists and uses thereof” (Merck Patent GmbH, priority 2016, dated 2022).

Each compound was assayed against T1, TLR7 (Homo sapiens, UniProt Q9NYK1) (assay: HEK Cell Assay (TLR7/NFKb HEK reporter cells, Steady-Glo)). Conditions: compound 30 min, then R*48 agonist 5 hours, Steady-Glo readout, read-out: Potency.
T1 construct: expressed in transfected cells; host or cells: HEK cells carrying TLR7 and an NF-kB reporter read with Steady-Glo
T1 sequence (Q9NYK1 27-1049): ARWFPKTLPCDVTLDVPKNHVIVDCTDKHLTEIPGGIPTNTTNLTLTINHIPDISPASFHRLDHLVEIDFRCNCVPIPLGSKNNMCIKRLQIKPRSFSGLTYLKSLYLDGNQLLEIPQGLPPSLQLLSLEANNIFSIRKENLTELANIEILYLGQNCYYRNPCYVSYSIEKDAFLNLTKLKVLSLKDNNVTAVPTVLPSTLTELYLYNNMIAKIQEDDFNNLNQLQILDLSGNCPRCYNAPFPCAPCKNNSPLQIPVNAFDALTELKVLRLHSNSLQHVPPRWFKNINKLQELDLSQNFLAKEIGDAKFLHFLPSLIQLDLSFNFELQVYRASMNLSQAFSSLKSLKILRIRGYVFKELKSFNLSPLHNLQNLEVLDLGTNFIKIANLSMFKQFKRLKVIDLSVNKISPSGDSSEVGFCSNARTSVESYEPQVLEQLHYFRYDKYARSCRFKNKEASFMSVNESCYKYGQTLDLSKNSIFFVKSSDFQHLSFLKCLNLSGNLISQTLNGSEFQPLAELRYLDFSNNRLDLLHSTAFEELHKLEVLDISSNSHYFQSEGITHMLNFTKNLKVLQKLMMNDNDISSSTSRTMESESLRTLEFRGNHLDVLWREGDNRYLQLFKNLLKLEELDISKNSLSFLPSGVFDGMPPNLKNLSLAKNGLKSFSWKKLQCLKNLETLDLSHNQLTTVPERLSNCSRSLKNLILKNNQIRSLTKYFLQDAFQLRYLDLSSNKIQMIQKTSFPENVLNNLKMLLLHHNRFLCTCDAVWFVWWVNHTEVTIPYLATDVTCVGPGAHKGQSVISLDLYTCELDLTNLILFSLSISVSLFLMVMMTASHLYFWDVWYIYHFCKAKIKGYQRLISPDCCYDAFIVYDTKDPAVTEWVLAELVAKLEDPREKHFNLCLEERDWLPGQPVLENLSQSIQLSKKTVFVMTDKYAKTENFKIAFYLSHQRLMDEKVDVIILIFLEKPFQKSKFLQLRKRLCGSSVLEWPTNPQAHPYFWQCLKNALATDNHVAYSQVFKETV
Assay type: cell-based
How it was run: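 TLR7/NF-κB HEK reporter cells cultured 24 h, then pre-incubated 30 min with compound before adding R*48 agonist. Luciferase read by Steady-Glo luminescence after 5 h.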

IC50 [µM]	SMILES
1 to 20	Cc1ccc([C@@H]2C[C@H](C)CN(C(=O)CC3CCN(C)CC3)C2)c2cccnc12 [Compound 82, 1-[(3S,5S)-3-Methyl-5-(8-methyl-quinolin-5-yl)-piperidin-1-yl]-2-(1-methyl-piperidin-4-yl)-ethanone]
< 1	Cc1ccc([C@H]2C[C@H](C)CN(C(=O)CC3CCN(C)CC3)C2)c2cccnc12 [Compound 83, 1-[(3S,5R)-3-Methyl-5-(8-methyl-quinolin-5-yl)-piperidin-1-yl]-2-(1-methyl-piperidin-4-yl)-ethanone]
< 1	Cc1ccc([C@H]2C[C@@H](C)CN(C(=O)CC3C4CC3CN(C)C4)C2)c2cccnc12 (stereo partly drawn) [Compound 84, 2-(3-Methyl-3-aza-bicyclo [3.1.1]hept-6-yl)-1-[(3R,5R)-3-methyl-5-(8-methyl-quinolin-5-yl)-piperidin-1-yl]-ethanone]
1 to 20	C[C@@H]1C[C@H](c2cc(F)c(C#N)c3ncccc23)CN(C(=O)CC2CCN(C)CC2)C1 [Compound 85, 7-Fluoro-5-{(3R,5R)-5-methyl-1-[2-(1-methyl-piperidin-4-yl)-acetyl]-piperidin-3-yl}-quinoline-8-carbonitrile]
< 1	COc1ccc([C@@H]2C[C@@H](C)CN(C(=O)CC3CCN(C)CC3)C2)c2cccnc12 [Compound 86, 1-[(3S,5R)-3-(8-Methoxy-quinolin-5-yl)-5-methyl-piperidin-1-yl]-2-(1-methyl-piperidin-4-yl)-ethanone]
< 1	COc1ccc([C@H]2C[C@@H](C)CN(C(=O)CC3CCN(C)CC3)C2)c2cccnc12 [Compound 87, 1-[(3R,5R)-3-(8-Methoxy-quinolin-5-yl)-5-methyl-piperidin-1-yl]-2-(1-methyl-piperidin-4-yl)-ethanone]
1 to 20	COc1ncc([C@@H]2C[C@@H](C)CN(C(=O)CC3CCN(C)CC3)C2)c2cccnc12 [Compound 88, 1-[(3S,5R)-3-(8-Methoxy-[1,7]naphthyridin-5-yl)-5-methyl-piperidin-1-yl]-2-(1-methyl-piperidin-4-yl)-ethanone]
1 to 20	COc1ncc([C@H]2C[C@@H](C)CN(C(=O)CC3CCN(C)CC3)C2)c2cccnc12 [Compound 89, 1-[(3R,5R)-3-(8-Methoxy-[1,7]naphthyridin-5-yl)-5-methyl-piperidin-1-yl]-2-(1-methyl-piperidin-4-yl)-ethanone]
< 1	Cc1c(F)cc([C@H]2C[C@@H](C)CN(C(=O)CC3CCN(C)CC3)C2)c2cccnc12 [Compound 90, 1-[(3R,5R)-3-(7-Fluoro-8-methyl-quinolin-5-yl)-5-methyl-piperidin-1-yl]-2-(1-methyl-piperidin-4-yl)-ethanone]
1 to 20	C[C@@H]1C[C@H](c2ccc(C#N)c3ncccc23)CN(C(=O)C[C@H]2CCN(C)CC2(F)F)C1 [Compound 91, 5-{(3R,5R)-1-[2-((R)-3,3-Difluoro-1-methyl-piperidin-4-yl)-acetyl]-5-methyl-piperidin-3-yl}-quinoline-8-carbonitrile]
< 1	C[C@@H]1C[C@H](c2ccc(C#N)c3ncccc23)CN(C(=O)C[C@@H]2CCN(C)CC2(F)F)C1 [Compound 92, 5-((3R,5R)-1-[2-((S)-3,3-Difluoro-1-methyl-piperidin-4-yl)-acetyl]-5-methyl-piperidin-3-yl}-quinoline-8-carbonitrile]
< 1	C[C@@H]1C[C@H](c2ccc(C#N)c3ncccc23)CN(C(=O)CC2C3CC2CN(C)C3)C1 (stereo partly drawn) [Compound 93, 5-[(3R,5R)-5-methyl-1-[2-(3-methyl-3-azabicyclo[3.1.1]heptan-6-yl)acetyl]-3-piperidyl]quinoline-8-carbonitrile]
1 to 20	Cc1ncc([C@@H]2C[C@@H](C)CN(C(=O)CC3CCN(C)CC3)C2)c2cccnc12 [Compound 94, 1-[(3R,5S)-3-Methyl-5-(8-methyl-[1,7]naphthyridin-5-yl)-piperidin-1-yl]-2-(1-methyl-piperidin-4-yl)-ethanone]
1 to 20	Cc1ncc([C@H]2C[C@@H](C)CN(C(=O)CC3CCN(C)CC3)C2)c2cccnc12 [Compound 95, 1-[(3R,5R)-3-Methyl-5-(8-methyl-[1,7]naphthyridin-5-yl)-piperidin-1-yl]-2-(1-methyl-piperidin-4-yl)-ethanone]
1 to 20	C[C@@H]1C[C@@H](c2ccc(C#N)c3ncccc23)CN(C(=O)CN2CCN(C)CC2)C1 [Compound 96, 5-{(3S,5R)-5-Methyl-1-[2-(4-methyl-piperazin-1-yl)-acetyl]-piperidin-3-yl}-quinoline-8-carbonitrile]
< 1	C[C@@H]1C[C@H](c2ccc(C#N)c3ncccc23)CN(C(=O)CN2CCN(C)CC2)C1 [Compound 97, 5-((3R,5R)-5-Methyl-1-[2-(4-methyl-piperazin-1-yl)-acetyl]-piperidin-3-yl}-quinoline-8-carbonitrile]
> 20	C[C@@H]1C[C@H](c2ccc(C#N)c3ncccc23)CN(C(=O)C2(N)CC2)C1 [Compound 98, 5-[(3R,5R)-1-(1-Amino-cyclopropanecarbonyl)-5-methyl-piperidin-3-yl]-quinoline-8-carbonitrile]
1 to 20	C[C@@H]1C[C@@H](c2ccc(C#N)c3ncccc23)CN(C(=O)C2CC(N)C2)C1 (stereo partly drawn) [Compound 99, 5-[(3S,5R)-1-(3-aminocyclobutanecarbonyl)-5-methyl-3-piperidyl]quinoline-8-carbonitrile]
< 1	C[C@@H]1C[C@H](c2ccc(C#N)c3ncccc23)CN(C(=O)C2CC(N)C2)C1 (stereo partly drawn) [Compound 100, 5-[(3R,5R)-1-(3-aminocyclobutanecarbonyl)-5-methyl-3-piperidyl]quinoline-8-carbonitrile]
> 20	C[C@H]1C[C@H](c2ccc(C#N)c3nccnc23)CN(C(=O)CC2CCN(C)CC2)C1 [Compound 101, 8-{(3R,5S)-5-Methyl-1-[2-(1-methyl-piperidin-4-yl)-acetyl]-piperidin-3-yl}-quinoxaline-5-carbonitrile]
< 1	C[C@H]1C[C@@H](c2ccc(C#N)c3nccnc23)CN(C(=O)CC2CCN(C)CC2)C1 [Compound 102, 8-{(3S,5S)-5-Methyl-1-[2-(1-methyl-piperidin-4-yl)-acetyl]-piperidin-3-yl}-quinoxaline-5-carbonitrile]
1 to 20	C[C@@H]1C[C@H](c2ccc(OC(F)(F)F)c3ncccc23)CN(C(=O)CC2CCN(C)CC2)C1 [Compound 103, 2-(1-Methyl-piperidin-4-yl)-1-[(3R,5R)-3-methyl-5-(8-trifluoromethoxy-quinolin-5-yl)-piperidin-1-yl]-ethanone]
> 20	C[C@@H]1C[C@@H](c2ccc(OC(F)(F)F)c3ncccc23)CN(C(=O)CN2CCN(C)CC2)C1 [Compound 104, 2-(4-Methyl-piperazin-1-yl)-1-[(3R,5S)-3-methyl-5-(8-trifluoromethoxy-quinolin-5-yl)-piperidin-1-yl]-ethanone]
1 to 20	C[C@@H]1C[C@H](c2ccc(OC(F)(F)F)c3ncccc23)CN(C(=O)CN2CCN(C)CC2)C1 [Compound 105, 2-(4-Methyl-piperazin-1-yl)-1-[(3R,5R)-3-methyl-5-(8-trifluoromethoxy-quinolin-5-yl)-piperidin-1-yl]-ethanone]
> 20	C[C@@H]1C[C@H](c2ccc(C#N)c3ncccc23)CN(Cc2cnn(C)c2)C1 [Compound 106, 5-[(3R,5R)-5-methyl-1-[(1-methylpyrazol-4-yl)methyl]-3-piperidyl]quinoline-8-carbonitrile]
< 1	CC1CC(c2ccc(C#N)c3ncccc23)CN(C(=O)NC2CCN(C)CC2)C1 (centres unmarked) [Compound 109, 3-(8-Cyano-quinolin-5-yl)-5-methyl-piperidine-1-carboxylic acid (1-methyl-piperidin-4-yl)-amide]
1 to 20	CC1CC(c2ccc(C#N)c3ncccc23)CN(C(=O)NCC2CC(F)(F)C2)C1 (centres unmarked) [Compound 110, 3-(8-Cyano-quinolin-5-yl)-5-methyl-piperidine-1-carboxylic acid (3,3-difluoro-cyclobutylmethyl)-amide]
< 1	C[C@@H]1C[C@H](c2ccc(OC(F)(F)F)c3ncccc23)CN(C(=O)NC2CCN(C)CC2)C1 [Compound 112, (3R,5R)-3-Methyl-5-(8-trifluoromethoxy-quinolin-5-yl)-piperidine-1-carboxylic acid (1-methyl-piperidin-4-yl)-amide]
< 1	C[C@@H]1C[C@H](c2ccc(C#N)c3ncccc23)CN(C(=O)NC2CCN(C)CC2)C1 [Compound 113, (3R,5R)-3-(8-Cyano-quinolin-5-yl)-5-methyl-piperidine-1-carboxylic acid (1-methyl-piperidin-4-yl)-amid]
